What was measured:
[1] = target: T1, plasma dipeptidylpeptidase IV (Homo sapiens, UniProt P27487); test: In vitro dipeptidylpeptidase IV inhibition (H-Gly-Pro-AMC hydrolysis by plasma, fluorometry); format: biochemical; details: plasma diluted 8-fold, H-Gly-Pro-AMC.HBr substrate, room temperature, 20 minutes
T1 construct: 20 μL of plasma diluted 8-fold with saline in a well of a 96-well flat bottom plate; from tissue
Method: The concentration of free 7-amino-4-methyl-coumarin (AMC) generated by hydrolysis of H-Gly-Pro-AMC.HBr substrate by plasma dipeptidylpeptidase IV was determined by fluorometry.
A 20 μL of buffer (25 mmol/L hepes, 140 mmol/L sodium chloride, 1% bovine serum albumin, 80 mmol/L magnesium chloride hexahydrate, pH 7.4) containing each compound was added to 20 μL of plasma diluted 8-fold with saline in a well of a 96-well flat bottom plate. The plate was left at room temperature for 5 minutes and 10 μL of 0.1 mmol/L H-Gly-Pro-AMC.HBr solution was added to each well to initiate the reaction. […] Using a fluorescent plate reader, the free AMC concentration was determined by exciting the samples at 355 nm and measuring the fluorescence intensity at 460 nm.

[2] = target: T2, plasma dipeptidylpeptidase IV (Mus musculus, UniProt P28843); test: Inhibition of plasma dipeptidylpeptidase IV activity in mice by oral administration; format: in vivo; details: male ICR mice, 0.1 mg/mL suspension at 10 mL/kg, 30 minutes after administration
T2 construct: The blood samples were centrifuged at 6000 rpm for 2 minutes to separate plasma; from tissue; host or cells: plasma of male ICR mice (Charles River Laboratories Japan)
Method: Each compound was suspended in 0.3% sodium carboxymethylcellulose to a concentration of 0.1 mg/mL. The preparation was orally administered to 8 weeks old male ICR mice (Charles River Laboratories Japan) at a dose of 10 mL/kg. Using an EDTA 2K-treated capillary tube, blood samples were collected from the tail vein before administration and 30 minutes after administration. The blood samples were centrifuged at 6000 rpm for 2 minutes to separate plasma. […] The inhibition was determined from the decrease in the enzymatic activity from the initial activity (% inhibition={(activity before administration−activity after administration)/(activity before administration)}×100).

T1 sequence (P27487 39-766 limits assumed): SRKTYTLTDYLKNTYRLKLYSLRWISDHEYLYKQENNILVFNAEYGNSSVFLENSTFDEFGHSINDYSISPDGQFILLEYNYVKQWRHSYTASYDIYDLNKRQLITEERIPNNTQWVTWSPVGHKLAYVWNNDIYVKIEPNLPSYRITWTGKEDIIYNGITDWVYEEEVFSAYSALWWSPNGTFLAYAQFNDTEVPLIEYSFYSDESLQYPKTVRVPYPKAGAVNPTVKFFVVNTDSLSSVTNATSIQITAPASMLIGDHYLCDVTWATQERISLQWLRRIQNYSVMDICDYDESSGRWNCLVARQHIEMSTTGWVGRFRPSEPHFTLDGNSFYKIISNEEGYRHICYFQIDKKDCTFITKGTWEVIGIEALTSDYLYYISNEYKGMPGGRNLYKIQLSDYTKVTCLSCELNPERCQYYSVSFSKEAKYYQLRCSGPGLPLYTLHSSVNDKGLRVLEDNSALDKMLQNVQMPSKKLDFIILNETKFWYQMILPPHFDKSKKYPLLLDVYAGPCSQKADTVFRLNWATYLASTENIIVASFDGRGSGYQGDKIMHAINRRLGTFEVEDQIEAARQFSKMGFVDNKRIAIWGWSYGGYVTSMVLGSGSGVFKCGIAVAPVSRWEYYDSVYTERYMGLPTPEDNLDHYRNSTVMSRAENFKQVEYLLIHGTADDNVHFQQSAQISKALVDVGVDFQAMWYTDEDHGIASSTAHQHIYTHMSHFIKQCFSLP
T2 sequence (P28843 37-760 limits assumed): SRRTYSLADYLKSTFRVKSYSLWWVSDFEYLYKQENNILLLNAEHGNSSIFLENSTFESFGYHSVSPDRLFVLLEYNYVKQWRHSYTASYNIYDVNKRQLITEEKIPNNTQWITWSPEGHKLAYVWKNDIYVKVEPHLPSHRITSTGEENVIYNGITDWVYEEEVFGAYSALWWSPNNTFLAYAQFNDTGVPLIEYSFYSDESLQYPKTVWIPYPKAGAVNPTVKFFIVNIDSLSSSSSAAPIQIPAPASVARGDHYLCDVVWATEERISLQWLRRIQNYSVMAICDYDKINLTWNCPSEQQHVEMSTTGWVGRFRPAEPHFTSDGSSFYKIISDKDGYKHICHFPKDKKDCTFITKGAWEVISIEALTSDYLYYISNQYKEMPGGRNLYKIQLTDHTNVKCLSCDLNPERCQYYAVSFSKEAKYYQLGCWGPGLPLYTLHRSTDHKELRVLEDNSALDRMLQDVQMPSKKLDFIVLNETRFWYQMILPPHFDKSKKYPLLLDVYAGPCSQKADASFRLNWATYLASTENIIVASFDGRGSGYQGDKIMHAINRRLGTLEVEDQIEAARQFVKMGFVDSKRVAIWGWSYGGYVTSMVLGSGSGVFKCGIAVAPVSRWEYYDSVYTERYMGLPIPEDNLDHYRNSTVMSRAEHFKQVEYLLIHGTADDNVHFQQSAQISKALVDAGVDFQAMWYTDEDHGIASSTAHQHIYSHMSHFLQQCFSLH

SMILES	IC50 [1]	inhibition at 1 mg/kg [2]
N#C[C@@H]1C[C@H](F)CN1C(=O)CNC12CCC(C(=O)O)(CC1)CC2 [Example 1, (2S,4S)-1-[[N-(4-carboxybicyclo[2,2,2]oct-1-yl)amino]acetyl]-4-fluoropyrrolidine-2-carbonitrile]	3.1 nM	
CC12CCC(NCC(=O)N3C[C@@H](F)C[C@H]3C#N)(CC1)CC2 [Example 3, (2S,4S)-1-[[N-(4-methylbicyclo[2,2,2]oct-1-yl)amino]acetyl]-4-fluoropyrrolidine-2-carbonitrile]	0.25 nM	100%
N#C[C@@H]1C[C@H](F)CN1C(=O)CNC12CCC(CO)(CC1)CC2 [Example 5, (2S,4S)-1-[[N-(4-hydroxymethylbicyclo[2,2,2]oct-1-yl)amino]acetyl]-4-fluoropyrrolidine-2-carbonitrile]	1.1 nM	
N#C[C@@H]1C[C@H](F)CN1C(=O)CNC12CCC(F)(CC1)CC2 [Example 7, (2S,4S)-1-[[N-(4-fluorobicyclo[2,2,2]oct-1-yl)amino]acetyl]-4-fluoropyrrolidine-2-carbonitrile]		91%

From US7514571B2, “Bicyclo derivative” (Kyorin Pharmaceutical Co., Ltd., priority 2004, dated 2009)
